# According to US20260374739A1, “SMALL MOLECULAR WEIGHT CHEMICAL COMPOUND TO ANTAGONIZE EPH-EPHRIN TETRAMERIZATION AND INHIBIT BIDIRECTIONAL SIGNALING” (THE BOARD OF REGENTS OF THE UNIVERSITY OF TEXAS SYSTEM, priority 2022, published 2026):
# Entries after “also recorded” stand apart in the source; their conditions may differ.
# How the values were obtained:
# [1] = system: CFA-induced thermal pain in mice; assay: CFA inflammatory pain, thermal; format: in vivo, mouse
# Procedure: A total of five wildtype (WT) male mice were injected IP with A20 free base (3 mice at 10 mg/kg and 2 mice at 20 mg/kg in 6% DMSO/94% sunflower seed oil, data is pooled) and three WT males with vehicle (V) only as control. As indicated, injections of A20 or V started two days prior to the single injection of CFA into one of the two hind paws to initiate inflammatory pain, and injections continued for two additional days. For each day's examination of withdrawal latency, both left and right hind paws were subjected to 6-12 thermal pain measurements to obtain an average response time for each mouse. Mice were at 14 weeks age when experiment started.
# Wildtype (WT) female mice were injected IP with either A20 free base (20 mg/kg in 6% DMSO/94% sunflower seed oil), with MCD kinase inhibitor (10 mg/kg in PBS), or vehicle only (6% DMSO/94% sunflower seed oil). Injections of A20, MCD, or V started two days prior to a single injection of CFA into one of the two hind paws to initiate inflammatory pain, and injections continued for two additional days. For each day's examination of withdrawal latency, both left and right hind paws were subjected to 6-12 thermal pain measurements to obtain an average response time, and for each mouse the average of the uninjured hind paw response time was divided by the average of the injured side response time to obtain a pain response ratio for each mouse which was then plotted and subjected to indicated statistical analysis. Data shown were those obtained at day +3 post-CFA. Mice were at 20 weeks age when experiment started.
# FIG. 63 depicts tests of salt versions of compounds A20 and QPB4-Bn showing both are effective at reducing inflammatory pain when injected after the pain-generating insult and when using PBS as the vehicle. Wild-type (WT) male and female mice were injected IP with either A20.2×HCl salt (20 mg/kg in PBS), QPB4-Bn·2×HCl salt (20 mg/kg in PBS), or vehicle only (PBS). Here, the first injection of A20, QPB4-Bn, or V started 15 minutes after CFA was injected into one of the two hind paws to initiate inflammatory pain, and injections continued every 12 hours for three additional days. For each day's examination of withdrawal latency, both left and right hind paws were subjected to 6-12 thermal pain measurements to obtain an average response time, and for each mouse the average of the uninjured hind paw response time was divided by the average of the injured side response time to obtain a pain response ratio for each mouse which was then plotted and subjected to indicated statistical analysis. Data shown were those obtained at day +3 post-CFA. Mice were at 8 weeks age when experiment started.
# FIG. 64 depicts tests of two more A20 analogs, salt forms of QPB4 and QPP (QPP127) show both are effective at reducing inflammatory pain when injected after the pain-generating insult and when using PBS as the vehicle. Wild-type (WT) female mice were injected IP with QPB4.2×HCl salt (20 mg/kg in PBS), QPP (QPP127)·2×HCl salt (20 mg/kg in PBS), or vehicle only (PBS). Here, the first injection of QPB4, QPP (QPP127), or vehicle started 15 minutes after CFA was injected into one of the two hind paws to initiate inflammatory pain, and injections continued every 12 hours for three additional days. For each day's examination of withdrawal latency, both left and right hind paws were subjected to 6-12 thermal pain measurements to obtain an average response time, and for each mouse the average of the uninjured hind paw response time was divided by the average of the injured side response time to obtain a pain response ratio for each mouse which was then plotted and subjected to indicated statistical analysis. Data shown were those obtained at day +3 post-CFA. Mice were at 12 weeks age when experiment started.
# A20 was therefore tested in 14-week-old CD1 mice for enhanced thermal sensitivity induced by CFA. […]
# [2] = system: Zymosan-induced thermal pain in mice; assay: Zymosan inflammatory pain, thermal; format: in vivo, mouse; details: PO; for thermal pain ratio: A20 experiment vehicle close to 6
# Procedure: An alternative and potentially faster pain model using Zymosin (an inflammatory agent like CFA) to induce inflammatory pain was tested. […] Mice were first acclimated to the pain testing set ups and then subjected to baseline mechanical and thermal pain measurements. Early in the morning the following day, the left hind paws were injected subcutaneously with 30 μL of Zymosan (5 mg/ml in PBS; Z4250, Sigma-Aldrich). Two hours after the Zymosan injection, the left hind paws were assessed for thermal pain using Hargreaves device (2-4 hr), and then left paws tested for mechanical pain using VF filaments (4-6 hr), and then again for thermal pain (6-8 hr). Data from two independent experiments were pooled to increase the n values for the three different genotypes. […] Thermal pain increased in all group following Zymosan injury as indicated by a decreased average response time to the infrared heat source in all animals assessed, and the level of pain intensified from the 2-4 hr testing period to the 6-8 hr period.
# Inflammatory pain was induced by subcutaneous injection of 30 μl of 5 mg/ml Zymosan into the right hind paws of 12 wild-type adult male mice (5-6 months age, 129×1/SvJ background) that in previous days were acclimated to the testing chambers and assessed to obtain baseline pain measurements. After 15 min, mice were orally dosed with either vehicle only (97% PBS/3% DMSO) or with 20, 10, or 5 mg/kg of A20 (2×·HCl salt in vehicle), 3 mice for each condition. Two hours after Zymosan injection, the right hind paws were assessed for thermal pain using Hargreaves device (2-4 hr), then mice were orally dosed again with vehicle only or A20 chemicals, and then right paws tested for mechanical pain using VF filaments (4-6 hr), and then again for thermal pain (6-8 hr).
# Inflammatory pain was induced by subcutaneous injection of 30 μl of 5 mg/ml Zymosan into the left hind paws of 9 wild-type adult males (5-6 months age, 129/CD1 mixed background) that in previous days were acclimated to the testing chambers and assessed to obtain baseline pain measurements. After 15 min, mice were orally dosed with either vehicle only (97% PBS/3% DMSO) or with 20 mg/kg of 3511-I (2×·HCl salt in vehicle), or 20 mg/kg BQPB4 (3×·HCl salt in 97% sunflower seed oil/3% DMSO), 3 mice for each condition. Two hours after Zymosan injection, the left […] hind paws were assessed for mechanical pain using VF filaments (2-4 hr), then mice were orally dosed again with vehicle only or A20 chemicals, and then left hind paws tested for thermal pain using Hargreaves device (4-6 hr), and then again for mechanical pain (6-8 hr).
# Inflammatory pain was induced by subcutaneous injection of Zymosan into left hind paws, followed 15 min later with an oral dose of either vehicle or 20, 10, or 5 mg/kg of BQPB4 (3×·HCl salt in 97% sunflower seed oil/3% DMSO). Two hours after Zymosan injection, the left hind paws were assessed for mechanical pain using VF filaments (2-4 hr), then mice were orally dosed again with vehicle or BQPB4 chemical, and then hind paws tested for thermal pain using Hargreaves device (4-6 hr), and then tested again for mechanical pain (6-8 hr). […] Calculation of pain ratios confirmed the significant dose-dependent effects of BQPB4 at blunting thermal pain (FIG. 92B).
SMILES,thermal pain ([1]; dosed after CFA),thermal pain ratio [2],thermal pain [2],further results
"Oc1ccc(CN2CCN(Cc3ccc(Br)cc3)CC2)c2cccnc12 [Compound 42, 5-((4-(4-bromobenzyl)piperazin-1-yl)methyl)quinolin-8-ol]",ability to blunt the enhanced sensitivity produced by the inflammatory pain insult,,,
"Oc1c(Br)cc(CN2CCN(c3ccc(Br)cc3)CC2)c2cccnc12 [Compound 28, 7-bromo-5-((4-(4-bromophenyl)piperazin-1-yl)methyl)quinolin-8-ol]",,below 2,,"thermal pain ([2]; listed as BQPB4): significantly less thermal pain; also recorded: the 20 mg/kg dose produced the strongest and most significant reduction in pain, followed by the 10 mg/kg dose, and then the 5 mg/kg dose"
"COc1ccccc1N1CCN(Cc2cc(I)c(O)c3ncccc23)CC1 [Compound 71, 7-iodo-5-((4-(2-methoxyphenyl)piperazin-1-yl)methyl)quinolin-8-ol]",,~3,significantly less thermal pain,
"Oc1ccc(CN2CCN(c3ccc(Br)cc3)CC2)c2cccnc12 [Compound 26, 5-((4-(4-bromophenyl)piperazin-1-yl)methyl)quinolin-8-ol]",ability to blunt the enhanced sensitivity produced by the inflammatory pain insult,,,
"Oc1c(Br)cc(CN2CCOCC2)c2cccnc12 [Compound 5, 7-bromo-5-(morpholinomethyl)quinolin-8-ol]",,around 3,significant reductions in both mechanical and thermal pain,"thermal pain ratio ([1]; IP or PO 20 mg/kg, vehicle 4 or above): < 2; thermal pain ([1]; IP, dosing started two days before CFA, listed as A20): remarkably blunted; also recorded: appears to be a more effective agent; thermal pain ([1]; dosed after CFA, listed as A20): ability to blunt the enhanced sensitivity produced by the inflammatory pain insult; also recorded: reduced sensitivity to the infrared heat source compared to the vehicle treated mice"
"Oc1ccc(CN2CCN(c3ccc(Br)cn3)CC2)c2cccnc12 [Compound 33, 5-((4-(5-bromopyridin-2-yl)piperazin-1-yl)methyl)quinolin-8-ol]",ability to blunt the enhanced sensitivity produced by the inflammatory pain insult,,,
